The structures appear in SMILES notation. Structures can show the parent of a compound that is named as a salt.

Drawing on US10829452B2, “Histone methyltransferase inhibitors” (GLOBAL BLOOD THERAPEUTICS, INC., priority 2016, dated 2020), this text covers IC50 for 23 compounds.

This assay deals with T1, G9a (Homo sapiens, UniProt Q96KQ7).
T1 sequence (Q96KQ7 1-1210): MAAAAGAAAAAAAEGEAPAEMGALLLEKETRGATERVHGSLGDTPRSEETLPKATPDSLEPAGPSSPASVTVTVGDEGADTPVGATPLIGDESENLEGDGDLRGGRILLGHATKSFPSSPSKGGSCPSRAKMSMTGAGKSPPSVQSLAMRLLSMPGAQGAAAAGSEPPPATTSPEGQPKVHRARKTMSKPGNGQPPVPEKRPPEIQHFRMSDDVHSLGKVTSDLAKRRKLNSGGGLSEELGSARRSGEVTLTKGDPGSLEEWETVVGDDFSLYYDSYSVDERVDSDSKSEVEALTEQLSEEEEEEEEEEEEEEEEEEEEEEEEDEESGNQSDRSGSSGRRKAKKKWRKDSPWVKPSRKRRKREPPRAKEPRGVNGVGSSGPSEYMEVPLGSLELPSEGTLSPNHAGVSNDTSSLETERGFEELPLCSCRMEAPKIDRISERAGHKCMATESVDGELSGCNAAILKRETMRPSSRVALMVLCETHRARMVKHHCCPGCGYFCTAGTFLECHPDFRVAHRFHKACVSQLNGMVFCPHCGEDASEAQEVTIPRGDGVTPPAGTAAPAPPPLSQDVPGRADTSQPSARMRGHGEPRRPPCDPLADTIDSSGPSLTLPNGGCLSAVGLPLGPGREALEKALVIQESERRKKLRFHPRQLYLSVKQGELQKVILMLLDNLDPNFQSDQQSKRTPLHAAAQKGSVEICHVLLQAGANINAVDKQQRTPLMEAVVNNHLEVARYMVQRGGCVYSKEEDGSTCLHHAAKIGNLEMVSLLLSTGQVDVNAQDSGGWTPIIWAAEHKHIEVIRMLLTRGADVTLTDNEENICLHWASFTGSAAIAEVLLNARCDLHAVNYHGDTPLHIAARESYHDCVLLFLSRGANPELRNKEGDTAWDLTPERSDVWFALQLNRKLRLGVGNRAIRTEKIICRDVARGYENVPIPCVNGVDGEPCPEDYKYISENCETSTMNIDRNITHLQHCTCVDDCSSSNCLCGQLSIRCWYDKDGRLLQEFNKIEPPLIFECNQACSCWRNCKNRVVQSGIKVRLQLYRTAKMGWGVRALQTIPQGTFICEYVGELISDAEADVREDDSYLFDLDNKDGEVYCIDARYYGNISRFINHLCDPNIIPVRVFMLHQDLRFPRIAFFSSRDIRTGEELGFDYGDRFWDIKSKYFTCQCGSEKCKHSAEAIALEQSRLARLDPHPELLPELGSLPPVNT
In words: G9a AlphaLISA enzymatic activity assay. The class given is biochemical. Conditions: 0.15 nM G9a, 15 uM S-adenosyl-methionine, 100 nM biotinylated histone 3 peptide (1-21), 1 hour at room temperature; read-out: G9a in (uM) (IC50, concentration that produced 50% inhibition). From the text: The G9a AlphaLISA assay was used to detect the methyl modifications of a biotinylated histone H3 peptide by the compounds. These modifications are done by the histone methyl transferase activity of the G9a enzyme. The assay consists of reading a chemiluminescent signal at 615 nm; this signal is generated by a laser excitation at 680 nm that transfers a reactive singlet oxygen between the donor beads and acceptor beads. Donor beads are streptavidin conjugated and bind to the biotin on the peptide. Acceptor beads are conjugated with an antibody that recognizes the specific G9a methyl mark on the peptide. If there is a methyl mark on the peptide, the acceptor beads will bind to the peptide. Upon binding, the acceptor beads will be in close proximity (<200 nm) of the donor beads and when the donor beads are excited, the transfer of the oxygen can occur and a strong signal will be generated. If there is no methyl mark, the interaction between beads will not occur and signal will be at background levels.
For the assay, the following buffer was used to set up reactions: 50 mM Tris-HCl pH9, 50 mM NaCl, 0.01% Tween-20 and 1 mM DTT (added fresh prior to starting the reactions). The assay is set up by adding a final concentration of 0.15 nM G9a, 15 uM S-adenosyl-methionine and, 100 nM biotinylated histone 3 peptide (1-21). The reaction is incubated at room temperature for 1 hour, and subsequently quenched by the addition of the acceptor beads (anti-H3k9me2 AlphaLISA acceptor beads, PerkinElmer # AL117) at a final concentration of 20 ug/mL. The acceptor beads are incubated for 1 hour. After 1 hour, the donor beads are added at a final concentration of 20 ug/mL (Alpha Streptavidin donor beads, PerkinElmer #6760002). Donor beads are incubated for 0.5 hours. Both donor and acceptor beads are resuspended in AlphaLISA 5X Epigenetics Buffer 1 Kit (PerkinElmer # AL008) prior to addition to the reaction. All manipulations and incubations with the donor and acceptor beads are done in subdued light. Signal is detected in an EnVision plate reader in Alpha mode (see ACS Med Chem Lett. 2014 Jan. 2; 5(2):205-9. doi: 10.1021/m1400496h. eCollection 2014. Discovery and development of potent and selective inhibitors of histone methyltransferase g9a.)
Percent inhibition was calculated for each compound dilution and the concentration that produced 50% inhibition was calculated. This value is presented as the IC50.

In the case of `CNc1nc2cc(OCCCN3CCCC3)c(OC)cc2c2c1CCN2` [Example 22, 8-methoxy-N-methyl-7-[3-(pyrrolidin-1-yl)propoxy]-1H,2H,3H-pyrrolo[3,2-c]quinolin-4-amine trifluoroacetate], the IC50 is 0.003 µM. `COc1cc2c3c(c(NC(C)C)nc2cc1OCCCN1CCCC1)CCN3` [Example 23, 8-methoxy-N-(propan-2-yl)-7-[3-(pyrrolidin-1-yl)propoxy]-1H,2H,3H-pyrrolo[3,2c]-quinolin-4-amine trifluoroacetate]: the IC50 turned out to be 0.003 µM.

`CNc1nc2cc(OCCCN3CCCC3)c(OC)cc2c2c1CC(C)(C)N2` [Example 24, 8-methoxy-N,2,2-trimethyl-7-[3-(pyrrolidin-1-yl)propoxy]-1H,2H,3H-pyrrolo[3,2-c]quinolin-4-amine trifluoroacetate]: the IC50 was determined as 0.006 µM. As for `COc1cc2c3c(c(NC(C)C)nc2cc1OCCCN1CCCC1)CC(C)(C)N3` [Example 25, 8-methoxy-2,2-dimethyl-N-(propan-2-yl)-7-[3-(pyrrolidin-1-yl)propoxy]-1H,2H,3H-pyrrolo[3,2-c]quinolin-4-amine trifluoroacetate], the figure is 0.005 µM. `CNc1nc2cc(OCCCN3CCCC3)c(OC)cc2c2c1CCCN2` [Example 26, 9-methoxy-N-methyl-8-[3-(pyrrolidin-1-yl)propoxy]-1H,2H,3H,4H-benzo[h]1,6-naphthyridin-5-amine formate]: the IC50 came to 0.004 µM. As to `COc1cc2c3c(c(NC(C)C)nc2cc1OCCCN1CCCC1)CCCN3` [Example 27, 9-methoxy-N-(propan-2-yl)-8-[3-(pyrrolidin-1-yl)propoxy]-1H,2H,3H,4H-benzo[h]1,6-naphthyridin-5-amine trifluoroacetate], the IC50 was found to be 0.006 µM. `COc1cc2c3c(c(C)nc2cc1OCCCN1CCCC1)CCCN3` [Example 28, 1-[3-({9-methoxy-5-methyl-1H,2H,3H,4H-benzo[h]1,6-naphthyridin-8-yl}oxy)propyl]pyrrolidine trifluoroacetate]: the IC50 was 0.006 µM.

As for `CNc1nc2cc(OCCCN3CCCC3)c(OC)cc2c2c1CCC(C)N2` (centres unmarked) [Example 29, 9-methoxy-N,2-dimethyl-8-[3-(pyrrolidin-1-yl)propoxy]-1H,2H,3H,4H-benzo[h]1,6-naphthyridin-5-amine formate], the IC50 came out at 0.009 µM. For `COc1cc2c3c(c(NC(C)C)nc2cc1OCCCN1CCCC1)CCC(C)N3` (centres unmarked) [Example 30, 9-methoxy-2-methyl-N-(propan-2-yl)-8-[3-(pyrrolidin-1-yl)propoxy]-1H,2H,3H,4H-benzo[h]1,6-naphthyridin-5-amine formate], the IC50 was 0.008 µM.

Turning to `COc1cc2c3c(c(C)nc2cc1OCCCN1CCCC1)CCC(C)N3` (centres unmarked) [Example 31, 1-[3-({9-methoxy-2,5-dimethyl-1H,2H,3H,4H-benzo[h]1,6-naphthyridin-8-yl}oxy)propyl]pyrrolidine trifluoroacetate], the IC50 stood at 0.009 µM. With `COc1cc2c3c(c(C4CC4)nc2cc1OCCCN1CCCC1)CCC(C)N3` (centres unmarked) [Example 32, 1-[3-({5-cyclopropyl-9-methoxy-2-methyl-1H,2H,3H,4H-benzo[h]1,6-naphthyridin-8-yl}oxy)propyl]pyrrolidine trifluoroacetate], the IC50 is 0.022 µM. As for `CNc1nc2cc(OCCCN3CCCC3)c(OC)cc2c2c1CCCCN2` [Example 33, 10-methoxy-N-methyl-9-[3-(pyrrolidin-1-yl)propoxy]-1H,2H,3H,4H,5H-azepino[3,2-c]quinolin-6-amine formate], the figure is 0.012 µM.

Consider `COc1cc2c3c(c(NC(C)C)nc2cc1OCCCN1CCCC1)CCCCN3` [Example 34, 10-methoxy-N-(propan-2-yl)-9-[3-(pyrrolidin-1-yl)propoxy]-1H,2H,3H,4H,5H-azepino[3,2-c]quinolin-6-amine formate], for which the IC50 was determined as 0.01 µM. The same measure for `COc1cc2c3c(cnc2cc1OCCCN1CCCC1)CC(C)(C)N3` [Example 35, 1-[3-({8-methoxy-2,2-dimethyl-1H,2H,3H-pyrrolo[3,2-c]quinolin-7-yl}oxy)propyl]pyrrolidine formate]: 0.012 µM; for `COc1cc2c3c(c(C4CC4)nc2cc1OCCCN1CCCC1)CC(C)(C)N3` [Example 36, 1-[3-({4-cyclopropyl-8-methoxy-2,2-dimethyl-1H,2H,3H-pyrrolo[3,2-c]quinolin-7-yl}oxy)propyl]pyrrolidine formate]: 0.009 µM.

With `COc1cc2c3c(c(O)nc2cc1OCCCN1CCCC1)CCC3` [Example 37, 8-methoxy-7-[3-(pyrrolidin-1-yl)propoxy]-1H,2H,3H-cyclopenta[c]quinolin-4-ol trifluoroacetate], the IC50 amounted to 1.3 µM. Regarding `COc1cc2c3c(c(O)nc2cc1OCCCN1CCCC1)CCCC3` [Example 38, 2-methoxy-3-[3-(pyrrolidin-1-yl)propoxy]-7,8,9,10-tetrahydrophenanthridin-6-ol trifluoroacetate], the IC50 was found to be 3 µM. For `COc1cc2c3c(c(NC4CCN(C(C)C)CC4)nc2cc1OCCCN1CCCC1)CCCC3` [Example 39, 2-methoxy-N-[1-(propan-2-yl)piperidin-4-yl]-3-[3-(pyrrolidin-1-yl)propoxy]-7,8,9,10-tetrahydrophenanthridin-6-amine trifluoroacetate], the IC50 stood at 3 µM.

On to `COc1cc2c3c(cnc2cc1OCCCN1CCCC1)CCCC3` [Example 40, 2-methoxy-3-[3-(pyrrolidin-1-yl)propoxy]-7,8,9,10-tetrahydrophenanthridine trifluoroacetate], for which the IC50 stood at 1.3 µM.

As for `COc1cc2c3c(c(NC4CCN(C)CC4)nc2cc1OCCCN1CCCC1)CCC3` [Example 41, N-{8-methoxy-7-[3-(pyrrolidin-1-yl)propoxy]-1H,2H,3H-cyclopenta[c]quinolin-4-yl}-1-methylpiperidin-4-amine formate], the IC50 was 0.5 µM. The same measure for `COc1cc2c3c(c(NC4CCN(C(C)C)CC4)nc2cc1OCCCN1CCCC1)CCC3` [Example 43, N-{8-methoxy-7-[3-(pyrrolidin-1-yl)propoxy]-1H,2H,3H-cyclopenta[c]quinolin-4-yl}-1-(propan-2-yl)piperidin-4-amine formate]: 1.7 µM; for `COc1cc2c3c(c(NC4COC4)nc2cc1OCCCN1CCCC1)CCC3` [Example 44, 8-methoxy-N-(oxetan-3-yl)-'7-[3-(pyrrolidin-1-yl)propoxy]-1H,2H,3H-cyclopenta[c]quinolin-4-amine formate]: 5.8 µM; for `COc1cc2nc(NC(C)C)c3c(c2cc1OCCCN1CCCC1)COC3` [Example 45, 7-methoxy-N-(propan-2-yl)-8-[3-(pyrrolidin-1-yl)propoxy]-1H,3H-furo[3,4-c]quinolin-4-amine]: 4.3 µM.
